Results as given in the supplement of paper PMC11451515.

What was measured:
Conditions in all cases: 48 h
SEM cells [1] = test: AUC of viability dose-response curve (% viability x log10 dose units); higher = less sensitive
In short: (§1)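 Seeding of medium-adapted leukemia cells was at 500 or 1000 cells/well in 1536-well plates, followed by 48 h at 37°C with library compounds in DMSO at 11 threefold doses from 47 μM to 0.79 nM. CellTiter-Glo One luminescence was normalised per plate to DMSO and cell-free wells and fitted as a four-parameter log-logistic function of log10 dose. Area under the curve was integrated by trapezoidal rule, with curves exceeding full viability scaled and curves failing quality control removed.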

NOMO1 [2] = test: as above
In short: as §1

P12-Ichikawa [3] = test: as above
In short: as §1

SEM cells [4] = test: cell viability relative to DMSO control; higher = less cytotoxic
In short: (§2)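 Viability values are per-plate percentages of DMSO wells, with background from cell-free wells. Library compounds in DMSO were pin-dosed, in an 11-point threefold series from 47 μM to 0.79 nM, onto NOMO1 or SEM (500 cells/well) or P12-Ichikawa (1000 cells/well) leukemia cells in 1536-well plates (5 μl). Those cells had been adapted for at least four passages in each medium, and CellTiter-Glo One luminescence was read after 48 h at 37°C.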

NOMO1 [5] = test: as above
In short: as §2

P12-Ichikawa [6] = test: as above
In short: as §2

C[S+](=O)([O-])c1ccc(Oc2cc(F)cc(C#N)c2)c2c1[C@H](O)C(F)(F)C2
AUC of viability dose-response curve
Conditions | NOMO1 [2] | P12-Ichikawa [3] | SEM cells [1]
HPLM + 10% dialyzed FBS | 455 | 467 | 467
RPMI 5 mM glucose + 10% FBS | 462 | 469 | 459
RPMI 5 mM glucose + 10% dialyzed FBS | 448 | 472 | 467

cell viability [%]
Conditions | NOMO1 [5] | P12-Ichikawa [6] | SEM cells [4]
HPLM + 10% dialyzed FBS, 0.000781 µM | 96.5 | 92.8 | 73.5
HPLM + 10% dialyzed FBS, 0.00234 µM | 123 | 96.9 | 97.9
HPLM + 10% dialyzed FBS, 0.00702 µM | 123 | 102 | 101
HPLM + 10% dialyzed FBS, 0.0211 µM | 112 | 100 | 101
HPLM + 10% dialyzed FBS, 0.0632 µM | 119 | 102 | 108
HPLM + 10% dialyzed FBS, 0.19 µM | 119 | 107 | 105
HPLM + 10% dialyzed FBS, 0.569 µM | 139 | 103 | 103
HPLM + 10% dialyzed FBS, 1.71 µM | 126 | 104 | 106
HPLM + 10% dialyzed FBS, 5.12 µM | 112 | 110 | 111
HPLM + 10% dialyzed FBS, 15.4 µM | 120 | 109 | 106
HPLM + 10% dialyzed FBS, 46.1 µM | 121 | 96.3 | 87.7
RPMI 5 mM glucose + 10% FBS, 0.000781 µM | 92.7 | 91.5 | 93.8
RPMI 5 mM glucose + 10% FBS, 0.00234 µM | 111 | 100 | 117
RPMI 5 mM glucose + 10% FBS, 0.00702 µM | 101 | 103 | 152
RPMI 5 mM glucose + 10% FBS, 0.0211 µM | 103 | 117 | 140
RPMI 5 mM glucose + 10% FBS, 0.0632 µM | 119 | 108 | 138
RPMI 5 mM glucose + 10% FBS, 0.19 µM | 117 | 107 | 155
RPMI 5 mM glucose + 10% FBS, 0.569 µM | 101 | 112 | 144
RPMI 5 mM glucose + 10% FBS, 1.71 µM | 112 | 105 | 156
RPMI 5 mM glucose + 10% FBS, 5.12 µM | 124 | 105 | 141
RPMI 5 mM glucose + 10% FBS, 15.4 µM | 108 | 106 | 158
RPMI 5 mM glucose + 10% FBS, 46.1 µM | 114 | 97.8 | 124
RPMI 5 mM glucose + 10% dialyzed FBS, 0.000781 µM | 97.4 | 92.6 | 76.9
RPMI 5 mM glucose + 10% dialyzed FBS, 0.00234 µM | 102 | 105 | 112
RPMI 5 mM glucose + 10% dialyzed FBS, 0.00702 µM | 103 | 108 | 121
RPMI 5 mM glucose + 10% dialyzed FBS, 0.0211 µM | 109 | 110 | 105
RPMI 5 mM glucose + 10% dialyzed FBS, 0.0632 µM | 111 | 115 | 124
RPMI 5 mM glucose + 10% dialyzed FBS, 0.19 µM | 127 | 110 | 121
RPMI 5 mM glucose + 10% dialyzed FBS, 0.569 µM | 123 | 104 | 106
RPMI 5 mM glucose + 10% dialyzed FBS, 1.71 µM | 125 | 110 | 128
RPMI 5 mM glucose + 10% dialyzed FBS, 5.12 µM | 117 | 110 | 106
RPMI 5 mM glucose + 10% dialyzed FBS, 15.4 µM | 125 | 104 | 120
RPMI 5 mM glucose + 10% dialyzed FBS, 46.1 µM | 114 | 106 | 84.9

O=C(O)CC/C=C\CC[C@@H]1[C@@H](N2CCCCC2)[C@@H](O)C[C@@H]1OCc1ccc(-c2ccccc2)cc1
AUC of viability dose-response curve
Conditions | NOMO1 [2] | P12-Ichikawa [3] | SEM cells [1]
HPLM + 10% dialyzed FBS | 433 | 461 | 461
RPMI 5 mM glucose + 10% FBS | 441 | 457 | 456
RPMI 5 mM glucose + 10% dialyzed FBS | 457 | 455 | 467

cell viability [%], HPLM + 10% dialyzed FBS
Conditions | P12-Ichikawa [6] | SEM cells [4]
0.000781 µM | 124 | 117
0.00234 µM | 131 | 131
0.00702 µM | 125 | 117
0.0211 µM | 126 | 136
0.0632 µM | 116 | 129
0.19 µM | 119 | 123
0.569 µM | 131 | 127
1.71 µM | 129 | 117
5.12 µM | 107 | 111
15.4 µM | 108 | 114
46.1 µM | 109 | 112

CC(C)(O)/C=C\C(=O)[C@](C)(O)[C@H]1[C@H](O)C[C@]2(C)[C@@H]3CC=C4[C@@H](C=C(O)C(=O)C4(C)C)[C@]3(C)C(=O)C[C@@]12C
AUC of viability dose-response curve
Conditions | NOMO1 [2] | P12-Ichikawa [3] | SEM cells [1]
HPLM + 10% dialyzed FBS | 272 | 269 | 234
RPMI 5 mM glucose + 10% FBS | 273 | 251 | 209
RPMI 5 mM glucose + 10% dialyzed FBS | 268 | 259 | 221

cell viability [%]
Conditions | NOMO1 [5] | P12-Ichikawa [6] | SEM cells [4]
HPLM + 10% dialyzed FBS, 0.000781 µM | 96.2 | 94.8 | 92.4
HPLM + 10% dialyzed FBS, 0.00234 µM | 115 | 106 | 91.3
HPLM + 10% dialyzed FBS, 0.00702 µM | 126 | 103 | 119
HPLM + 10% dialyzed FBS, 0.0211 µM | 116 | 99.6 | 100
HPLM + 10% dialyzed FBS, 0.0632 µM | 111 | 99.7 | 51.8
HPLM + 10% dialyzed FBS, 0.19 µM | 74.7 | 50.9 | 24
HPLM + 10% dialyzed FBS, 0.569 µM | 18.8 | 15.1 | 24
HPLM + 10% dialyzed FBS, 1.71 µM | 17.3 | 18.4 | 21.7
HPLM + 10% dialyzed FBS, 5.12 µM | 14.5 | 21.6 | 20.4
HPLM + 10% dialyzed FBS, 15.4 µM | 7.22 | 12.9 | 6.86
HPLM + 10% dialyzed FBS, 46.1 µM | 11.9 | 4.2 | 4.91
RPMI 5 mM glucose + 10% FBS, 0.000781 µM | 106 | 113 | 97.5
RPMI 5 mM glucose + 10% FBS, 0.00234 µM | 102 | 105 | 85.7
RPMI 5 mM glucose + 10% FBS, 0.00702 µM | 95.5 | 111 | 109
RPMI 5 mM glucose + 10% FBS, 0.0211 µM | 122 | 107 | 101
RPMI 5 mM glucose + 10% FBS, 0.0632 µM | 89.2 | 97.9 | 35
RPMI 5 mM glucose + 10% FBS, 0.19 µM | 63.4 | 47.3 | 15.8
RPMI 5 mM glucose + 10% FBS, 0.569 µM | 30.2 | 12.4 | 13.7
RPMI 5 mM glucose + 10% FBS, 1.71 µM | 18.8 | 15.1 | 11
RPMI 5 mM glucose + 10% FBS, 5.12 µM | 16.1 | 17.1 | 11.9
RPMI 5 mM glucose + 10% FBS, 15.4 µM | 9.22 | 6.22 | 6.54
RPMI 5 mM glucose + 10% FBS, 46.1 µM | 14.5 | 2.85 | 5.36
RPMI 5 mM glucose + 10% dialyzed FBS, 0.000781 µM | 101 | 93.9 | 104
RPMI 5 mM glucose + 10% dialyzed FBS, 0.00234 µM | 110 | 98.5 | 78.7
RPMI 5 mM glucose + 10% dialyzed FBS, 0.00702 µM | 108 | 93.9 | 103
RPMI 5 mM glucose + 10% dialyzed FBS, 0.0211 µM | 110 | 104 | 108
RPMI 5 mM glucose + 10% dialyzed FBS, 0.0632 µM | 99.8 | 102 | 55.6
RPMI 5 mM glucose + 10% dialyzed FBS, 0.19 µM | 58.2 | 43.8 | 17.5
RPMI 5 mM glucose + 10% dialyzed FBS, 0.569 µM | 22.1 | 14.6 | 14.2
RPMI 5 mM glucose + 10% dialyzed FBS, 1.71 µM | 16 | 17.9 | 12.8
RPMI 5 mM glucose + 10% dialyzed FBS, 5.12 µM | 18.7 | 20.9 | 12.5
RPMI 5 mM glucose + 10% dialyzed FBS, 15.4 µM | 9.49 | 6.49 | 6.59
RPMI 5 mM glucose + 10% dialyzed FBS, 46.1 µM | 12.2 | 3.06 | 5.46
